Measured values taken from PubChem BioAssay (NCI).
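Compound exposure: 48 hours, 5 concentrations, 96-well plates. TGI is the concentration that stops growth completely.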

Experiments:
Assay in all cases: inhibition of tumour cell growth, NCI panel, 48 h
786-0 renal = tested on: 786-0 renal
A498 renal = tested on: A498 renal
A549 NSCLC = tested on: A549 NSCLC
ACHN renal = tested on: ACHN renal
BT-549 breast = tested on: BT-549 breast
CAKI-1 renal = tested on: CAKI-1 renal
CCRF-CEM leukemia = tested on: CCRF-CEM leukemia
COLO 205 colon = tested on: COLO 205 colon
DU-145 prostate = tested on: DU-145 prostate
EKVX NSCLC = tested on: EKVX NSCLC
HCC-2998 colon = tested on: HCC-2998 colon
HCT-116 colon = tested on: HCT-116 colon
HCT-15 colon = tested on: HCT-15 colon
HOP-62 NSCLC = tested on: HOP-62 NSCLC
HS 578T breast = tested on: HS 578T breast
HT29 colon = tested on: HT29 colon
K-562 leukemia = tested on: K-562 leukemia
KM12 colon = tested on: KM12 colon
M14 melanoma = tested on: M14 melanoma
MALME-3M melanoma = tested on: MALME-3M melanoma
MCF7 breast = tested on: MCF7 breast
MDA-MB-231 breast = tested on: MDA-MB-231 breast
MDA-MB-435 = tested on: MDA-MB-435
MDA-N = tested on: MDA-N
MOLT-4 leukemia = tested on: MOLT-4 leukemia
NCI-H226 lung = tested on: NCI-H226 lung
NCI-H23 lung = tested on: NCI-H23 lung
NCI-H460 lung = tested on: NCI-H460 lung
NCI/ADR-RES ovarian = tested on: NCI/ADR-RES ovarian
OVCAR-3 ovarian = tested on: OVCAR-3 ovarian
OVCAR-4 ovarian = tested on: OVCAR-4 ovarian
OVCAR-5 ovarian = tested on: OVCAR-5 ovarian
OVCAR-8 ovarian = tested on: OVCAR-8 ovarian
PC-3 prostate = tested on: PC-3 prostate
RPMI-8226 leukemia = tested on: RPMI-8226 leukemia
RXF 393 renal = tested on: RXF 393 renal
SF-268 CNS = tested on: SF-268 CNS
SF-295 CNS = tested on: SF-295 CNS
SF-539 CNS = tested on: SF-539 CNS
SK-MEL-2 melanoma = tested on: SK-MEL-2 melanoma
SK-MEL-28 melanoma = tested on: SK-MEL-28 melanoma
SK-OV-3 ovarian = tested on: SK-OV-3 ovarian
SN12C renal = tested on: SN12C renal
SNB-19 CNS = tested on: SNB-19 CNS
SNB-75 CNS = tested on: SNB-75 CNS
SW-620 colon = tested on: SW-620 colon
T-47D breast = tested on: T-47D breast
U251 CNS = tested on: U251 CNS
UACC-257 melanoma = tested on: UACC-257 melanoma
UACC-62 melanoma = tested on: UACC-62 melanoma
UO-31 renal = tested on: UO-31 renal

Measured: TGI

C(#C[C@@]12CCC[C@@H]1N(Cc1ccccc1)CO2)c1ccc2c(c1)OCO2
> 100 µM: all assays above
